Experiments:
HN-5 cells [1] = assay: Clonogenic survival assay with γ-irradiation; assay type: cell-based; settings: for dose enhancement ratio at survival fraction of 0.5: cell line not named in the sentence (HN-5 by context)
Experimental: (§1) The radiosensitization effect of AC480 was evaluated in vitro using head neck squamous cell carcinoma cells, HNSCC-10, which express HER2 only and have no detectable amount of HER1 protein, and HN-5 cells, which express high levels of HER1 and HER2 proteins. […] AC480 was added to cell cultures that contained either HN-5 or HNSCC-10 cells 6 hrs before and kept in the medium for additional 66 hrs after irradiation. The cancerous cells were then irradiated with graded single doses of γ-radiation. At various predetermined time points after irradiation, the cells were assessed: (a) for clonogenic survival using clonogenic survival assays; (b) for apoptosis using aTUNEL assay; (c) for cell cycle distribution with FACS; and (d) for protein expression related to the cell cycle, apoptosis, and DNA repair, using Western blotting and immunoprecipitation methods.
(§2) HN-5 or UMSCC-10 cells were counted and plated. Twenty-four hours later, the cells in culture were then exposed to AC480 at 300 or 600 nM for 6 hrs. The cells were then irradiated with graded doses at 2, 4, or 6 Gy of γ-rays using a ^137Cs source (3.7 Gy/min). Sixty-six hours later, culture media with AC480 were removed and fresh media were added. Media change was also done for untreated control cells at the same time. After 11 to 14 days of incubation, colonies were counted. […] The dose enhancement ratio at survival fraction of 0.5 was 1.30 for 300 nM and 1.43 for 600 nM of AC480. Dose enhancement ratio was calculated by dividing the radiation dose required to achieve a surviving fraction of 0.5 in the absence of AC480 with the radiation dose required to achieve the same surviving fraction in the presence of AC480 at a specified concentration.

UMSCC-10 cells [2] = assay: Clonogenic survival assay with γ-irradiation; assay type: cell-based; settings: AC480 300 or 600 nM from 6 hrs before to 66 hrs after 2, 4 or 6 Gy γ-rays
Experimental: as §1, §2

γ-H2AX foci = γ-H2AX foci immunocytochemistry (DNA repair); assay type: cell-based; settings: 24 hrs after radiation; AC480 600 nM (FIG. 7)
Experimental: The control is shown as open circle and solid line.
as §1
The extent of DNA repair is quantified by measuring the generation of nuclear foci at the site of DNA damage by phosphorylated H2AX (γ-H2AX), which is involved in the retention of repair and signaling factor complexes at sites of DNA double strand breaks. γ-H2AX is detected with antibodies to phosphorylated H2AX using traditional immunohistochemistry (See, e.g., Friesner et al., Mol. Biol. Cell. 2005, ^-16, 2566-2576; and Dote et al., Clin. Cancer Res. 2005, 11, 4571-4579). […]

HN-5 cells [3] = assay: Cell proliferation assay (MTT assay); assay type: cell-based; settings: AC480 50 nM—1 μM, 72 hrs
Experimental: as §1
(§3) The effect of AC480 on cell proliferation of HN-5 and UMSCC-10 cells was determined using 3-[4,5-dimethylthiozol-2-yl]-2,5-diphenyltetrazolium bromide (MTT) assay. HN-5 and UMSCC-10 cells are plated in 96-well plates and treated with a series of concentrations of AC480. […] The cells are then lysed in 150 μL of ethanol/DMSO mixture (1:1), and the absorbance read at 540 nm using a 96-well plate reader.

UMSCC-10 cells [4] = assay: Cell proliferation assay (MTT assay); assay type: cell-based; settings: AC480 50 nM—1 μM, 72 hrs
Experimental: as §1, §3

HN-5 cells [5] = assay: TUNEL assay, radiation-induced apoptosis; assay type: cell-based
Experimental: as §1
(§4) Apoptotic cells are detected by in-situ labeling of fragmented DNA with enzymatically labeled nucleotides using the TUNEL method as described in commercial protocols or by following the procedure described in Sgonc et al., Trends in Genetic 1994, 10, 41-42. AC480 increased radiation-induced apoptosis in HN-5 but not in UMSCC-10 cells (FIG. 5).

UMSCC-10 cells [6] = assay: TUNEL assay, radiation-induced apoptosis; assay type: cell-based
Experimental: as §1, §4

HN-5 cells [7] = assay: Cell-cycle analysis (FACS) after radiation; assay type: cell-based
Experimental: as §1
(§5) Cell cycle distribution is measured by determining the ploidy of cells by staining the cells with fluorescent dye and sorting by FACS using a commercially available kit. AC480 increased radiation-induced accumulation of HN-5 but not in UMSCC-10 cells in the G1 cell cycle phase (FIG. 6).

UMSCC-10 cells [8] = assay: Cell-cycle analysis (FACS) after radiation; assay type: cell-based
Experimental: as §1, §5

[9] = tested on: adenocarcinomas expressing HER1 and/or HER2 in salivary gland, breast, non-small cell lung, and gastric cancer cell lines; settings: Wong et al., Clin. Cancer Res. 2006; cited from earlier work
HN-5 tumor xenografts = assay: Tumor growth delay assay, HN-5 tumor xenografts; assay type: in vivo, nude male mice; settings: AC480 120 mg/kg gavage once daily for 14 days
Experimental: The terms “dose enhancement ratio” and “dose enhancement factor” are used interchangeably herein and are used herein to measure the fold increase in cytotoxic efficacy of radiation when delivered in the presence of a radiosensitizer. In certain embodiments, dose enhancement ratio is calculated by dividing the radiation dose required to achieve a surviving fraction in the absence of the radiosensitizer with the radiation dose required to achieve the same surviving fraction in the presence of the radiosensitizer at a specified concentration. This calculation method can be used to assess the radiosensitizing effect of an radiosensitizer in an in vitro system, such as cells in culture. […]
The effect of AC480 on radioresponse was assessed by tumor growth delay assay using HN-5 tumor xenografts generated in nude male mice.
Specifically, HN-5 cells (1×10^6) were injected into the right leg of 3-4 month old nude male mice (nu-nu/Ncr) (SPF mice). […] Tumors were measured with calipers 3 times/week to determine tumor growth delay. […]

Cc1c(NC(=O)OC[C@@H]2COCCN2)cn2ncnc(Nc3ccc4c(cnn4Cc4cccc(F)c4)c3)c12 [AC480]
dose enhancement ratio at survival fraction of 0.5 (HN-5 cells [1]; 300 nM AC480): 1.30 | dose enhancement ratio at survival fraction of 0.5 (HN-5 cells [1]; 600 nM AC480): 1.43 | effect on radiosensitivity (clonogenic survival) (HN-5 cells [1]; HN-5 cells, AC480 300 or 600 nM from 6 hrs before to 66 hrs after 2, 4 or 6 Gy γ-rays): significantly enhanced | effect on radiosensitivity (clonogenic survival) (UMSCC-10 cells [2]): not | presence of γ-H2AX foci after radiation (γ-H2AX foci): prolonged | effect on cell growth (MTT) (HN-5 cells [3]): inhibits the growth | effect on cell growth (MTT) (UMSCC-10 cells [4]): not | effect on radiation-induced apoptosis (TUNEL) (HN-5 cells [5]): increased | effect on radiation-induced apoptosis (TUNEL) (UMSCC-10 cells [6]): not | effect on radiation-induced accumulation of cells in the G1 cell cycle phase (HN-5 cells [7]): increased | effect on radiation-induced accumulation of cells in the G1 cell cycle phase (UMSCC-10 cells [8]): not | cytotoxicity [9]: cytotoxic | effect on radioresponse of HN-5 tumors in vivo (HN-5 tumor xenografts; before and during radiation (5 Gy×5 days)): improve the radioresponse | enhancement factor (tumor growth delay) (HN-5 tumor xenografts; with XRT 5 Gy×5 consecutive days, HN-5 xenografts in nude mice): 1.9

— patent US20110086850A1, “RADIOSENSITIZATION OF TUMORS WITH INDAZOLPYRROLOTRIAZINES FOR RADIOTHERAPY” (Board of Regents, The University of Texas System, priority 2008, published 2011)
